Measurements as given in article PMC6085350, “Small molecule inhibitors of RAS-effector protein interactions derived using an intracellular antibody fragment” (Nature Communications, 2018).
“And” between values parts separate entries of the source, which are not always exact repeats. Identical values can stand only once. “Also recorded” adds a separate entry of the source. Like-named read-outs stand apart in the source and are kept apart here.

Experiments:
HT1080 cells (NRAS^Q61K) = experiment: Cell viability (CellTiterGlo), HT1080; assay type: cell-based, human; conditions: for effect on cell viability: HT1080, 0–20 μM, up to 72 h; for IC50: Homo sapiens, HT-1080
Protocol: Fig. 5 Abd-7 results on RAS-dependent signalling pathways and cell viability. a, b DLD-1 (a) or H358 (b) cells were serum-starved for 24 h, incubated in mono-layer with Abd-7 in a range from 2, 5, 10 and 20 μM for 3 h and stimulated with EGF 10 min. Proteins were extracted and separated by SDS-PAGE and transferred to membranes for Western analysis with anti-pAKT, anti-pERK, anti-pan AKT and anti-pan ERK. Anti-cyclophilin B antibody was the loading control. Signal was developed using standard ECL. c–e Effects of compounds Abd-2, Abd-4, Abd-5, Abd-6, and Abd-7 on the viability of human cancer cells lines was assessed for a 2-D culture of DLD-1 (mutant KRAS^G13D) cells and HT1080 cells (mutant NRAS^Q61K). The cells were treated with a dose range from 0 μM to 20 μ and incubated for 72 h when cell viability was assessed using CellTitreGlo. […] Each experiment was repeated at least three times (a, b) and four times (c, d). Where error bars are presented, they correspond to mean values ± SD of biological repeats […]
Cancer cell lines were in seeded in ViewPlates-96 microplates (PerkinElmer). DLD-1 cells were plated at 10,000 cells per well and HT1080 cells at 7500 cells per well and cultured in DMEM, high glucose, GlutaMAX media containing 10% FBS at 37 °C in 5% CO2 atmosphere. Cells were cultured overnight and the compounds (dissolved in DMSO and diluted to 0.2% DMSO) were added to the cells at concentrations ranging from 0 to 20 μM. The cells were incubated under standard culture conditions for either 24, 48 or 72 h. Cell viability was as quantitated using the CellTiterGlo Luminescent Cell Viability Assay (Promega) according to the manufacturer’s instructions to measure ATP generated by metabolically active cells. Luminescent signals were measured using an Envision 2103 Multilabel Microplate Reader (PerkinElmer). The luminescence signals obtained from the compound-treated cells were normalized against the signal for DMSO-only treated cells. The IC50 values, calculated from the 48 and 72 h CellTiterGlo data, were generated by non-linear regression using the software GraphPad Prism 7.00 for windows (GraphPad Inc).
Supplementary Figure 7: The effect of Abd compounds on the viability of cancer cells The effect of the chemical series on the viability of human cancer cells lines DLD -1 (a colorectal cancer cell line with mutant KRAS
) and HT1080 (a fibrosarcoma cell line with
). The cells were treated with a dose range from […] of either
Abd-2, Abd-4, Abd-5, Abd-6 and Abd-7 and incubated for 24 or 48 hours. Cell viability was assessed using CellTitreGlo . In each case, the data are normalized to cells treated with DMSO only. Panels a and b are DLD-1 viability and panels c and d are HT1080 viability.
The IC50 for Abd-7 at 48 & 72 […]
hours are shown in panel f. Each experiment was repeated at least four times ( a to d).
Where error bars are presented, they correspond to mean values ± SD of biological repeats.
(1 picture or pasted object on this page, not shown here)

GST-KRASG12V-GppNHp = target: T1, GST-KRASG12V-GppNHp (Homo sapiens, UniProt P01116, G12V); experiment: 1H CPMG NMR protein titration for Kd; assay type: binding; conditions: for Kd: CPMG NMR titration, 55 μM compound, read-out: Kd (binding affinity)
T1 construct: made in house; host or cells: E. coli (pGEX-2T; strain named only for the HRAS plasmids)
Protocol: Typical experimental parameters for Carr–Purcell-Meiboom-Gill (CPMG) NMR spectroscopy were the following: total echo time, 40 ms; relaxation delay, 2 s; and number of transients, […][53]. The PROJECT-CPMG sequence (90°x-[Ƭ-180°y-Ƭ- 90°y-Ƭ-180°y-Ƭ]n-acq) was applied. Water suppression was achieved by pre-saturation. Prior to Fourier transformation, the data were multiplied with an exponential function with 3-Hz line broadening. The CPMG experiments were conducted at a ^1H frequency of 700 MHz using a Bruker Avance with 5 mm inverse TCI 1 H/13 C/15 N cryo-probe. All experiments were conducted at 298 K and lapsed 128 scans. Furthermore, 3 mm diameter NMR tubes with a sample volume of 200 µl were used in all experiments. Solutions were buffered using a D2O PBS buffer corrected to pH 7.4. The sample preparation is exemplified as follow: with 5 µM of protein (PBS pH 7.4, 5 mM MgCl2), the compound (1.1 µl of a 10 mM (55 uM) solution in DMSO-d6) was added to an eppendorf before sequential addition of the D2O 10 mM PBS, 5 mM MgCl2 buffer adjusted to pH 7.4 (194.0 µl) and protein (4.9 µl, 205 µM, the protein is in an H2O-based buffer for stability reason). The resulting solution was vortexed to be fully mixed and transferred to a 3 mm NMR tube before the run. Negative controls (compound alone, without the protein) were prepared in a similar manner, in order to obtain an end volume of 200 µl. CPMG protein titration experiments were carried out at a fixed compound concentration and a variable protein concentration. It was estimated that 55 μM solution of the compound was optimum for a good CPMG; protein was titrate increasingly from 0 µM until the signal of the compound was undetected in the proton NMR. The integrations of the protons acquired were compared to the reference (compound alone, 0 µM of protein) in order to obtain a percentage of decrease for each concentration of protein. Three different proton signals were used and a mean was calculated for each run. Each protein concentration was run in triplicate and a mean was calculated for each concentration. Where error bars are presented, they correspond to mean values ± SD of experimental repeats. Concentration and percentage of decrease were plotted and Kd fitting was run on the generated curve using Origin® with the following function: A*(1/(2*C))*((B + x + C)-sqrt(((B + x + C)^2)-(4*x*C))) where A is the maximum % of inhibition (i.e. 100), B is the Kd and C is the concentration of the compound which should not be fixed in the Origin® Equation due to potential variations in compound solubility.
Supplementary Figure 6: Abd-7 Binding in WaterLOGSy and Kd calculations in CPMG WaterLOGSY and CPMG NMR orthogonal analysis of Abd-5 (panel a, b), Abd-6 (c, d), and Abd-7 (e, f) with GST-KRASG12V-GppNHp. For each waterLOGSY profile, the proton NMR spectrum of the compound is shown together the spectra of the compound after incubation with the KRAS (the NOE transfers occurs when the compounds displace those waters upon binding to the protein). The Kd of interaction of the compounds come from fitting a binding curve (right of panels b, d, f) of a CPMG titration (shown on the left of panels b, d, f). The calculated Kd is shown for each compound.
(MW), Kd, Solubility and ligand efficiency (LE). Each experiment was repeated at least three times. Where error bars are presented, they correspond to mean values ± SD of experimental repeats (b, d and f).

O=C(NCC1COc2ccccc2O1)c1ccco1 (stereo not drawn) [Abd-2]
effect on cell viability (HT1080 cells (NRAS^Q61K)): no effect on cell viability; also recorded: had not effect

COc1nc(-c2cccc3c2OCCO3)ccc1Nc1ccc(CN(C)C)cc1 [Abd-7]
IC50 (HT1080 cells (NRAS^Q61K); HT1080, 48 h, Supplementary Fig. 7f, read-out: HT1080 IC50 48h): 9.4 µM
IC50 (HT1080 cells (NRAS^Q61K); HT1080, 48 h as printed in discussion, read-out: IC50 cell viability): ~10 µM
IC50 (HT1080 cells (NRAS^Q61K); HT1080, 72 h, read-out: IC50 cell viability): 10 µM
ligand efficiency (GST-KRASG12V-GppNHp): ~0.3 and 0.34
Kd (GST-KRASG12V-GppNHp): 51 nM

COc1nc(-c2cccc3c2O[C@H](CNC(=O)C2CCOCC2)CO3)ccc1Nc1cccc(CN(C)C)c1 [Abd-6]
effect on cell viability (HT1080 cells (NRAS^Q61K)): have an effect on the viability
ligand efficiency (GST-KRASG12V-GppNHp): ~0.3
Kd (GST-KRASG12V-GppNHp): 38 nM

COc1cccc(-c2cccc3c2OC(CNC(=O)c2ccc(OCCN(C)C)cc2)CO3)n1 (stereo not drawn) [Abd-5]
effect on cell viability (HT1080 cells (NRAS^Q61K)): have an effect on the viability
ligand efficiency (GST-KRASG12V-GppNHp): ~0.3
Kd (GST-KRASG12V-GppNHp): 220 nM
